Assay results from paper PMC8003314, “Design and Synthesis of Ranitidine Analogs as Multi-Target Directed Ligands for the Treatment of Alzheimer’s Disease” (International Journal of Molecular Sciences, 2021).

How the values were obtained:
Aβ40 = molecular target: T1, Aβ40 (Homo sapiens, UniProt P05067); assay: ThT fluorescence assay of Aβ monomer aggregation; assay type: biochemical; conditions: 40 μM Aβ40 monomer, mean ± SEM, n = 3–5, N.E. = not significantly different from control samples; for Plateau Reduction (% Inhibition) / Lag Time Extension (Fold Increase): 100 µM compound; for Plateau Reduction (% Inhibition) / inhibition at 100 µM: 40 mM Tris-HCl pH 8.0, 25 °C; for Lag Time Extension (Fold Increase): T2/T1 relative to control; for inhibition at 100 µM: pH 8, 100 µM compound, read-out: Plateau Reduction (% Inhibition)
T1 construct: purchased AnaSpec; host or cells: synthetic peptide
Description: Synthetic Aβ40 was used in this study because it is the predominant isoform found in amyloid plaques isolated from AD brain [12]. Thioflavin T (ThT), a fluorescent compound that binds specifically to amyloid β-sheet structures to yield a shifted, enhanced florescence, was used to monitor the appearance of aggregates. […] The inhibitory effect of compounds on Aβ aggregation was evidenced as a reduction in the equilibrium plateau and/or an increase in the lag time. The plateau reduction (Figure 2A), which indicates inhibition that reduces the extent of Aβ aggregation, was defined as the percentage decrease of the plateau ThT fluorescence in the presence of inhibitor, P2, compared to the plateau ThT fluorescence in the absence of inhibitor, P1.
Lyophilized Aβ peptide was reconstituted in 50 mM NaOH at a concentration of 2 mg/mL and purified via size-exclusion chromatography (SEC) on a Superdex 75 HR 10/300 column (Cytiva, Marlborough, MA) using a running buffer of 40 mM Tris-HCl (pH 8.0). Bovine serum albumin (BSA) (2 mg/mL) was employed as a pretreatment to reduce nonspecific Aβ interaction with the dextran matrix of the column. […] The concentrations of eluted Aβ monomer fractions were determined with a calculated extinction coefficient of 1450 M^−1 cm^−1 at 276 nm. Purified Aβ monomer samples were used fresh or stored at 4 ℃ for up to 4 days.
All compounds were dissolved in DMSO at 5 mM and stored at −20 °C. […] DMSO (2% v/v) was added to control reactions run in parallel.
SEC-purified Aβ monomer was diluted to 40 μM in 40 mM Tris-HCl (pH 8.0) and agitated (vortex, 800 rpm, 25 °C) without (control) or with 100 µM ranitidine analogs. Periodically, a 20-μL aliquot was removed and combined with 140 μL of 10 μM ThT. Fluorescence (excitation = 450 nm, emission = 470–500 nm) was evaluated using a Perkin-Elmer LS-45 luminescence spectrometer (Waltham, MA, USA). Fluorescence values were calculated as the integrated area under the emission curve with baseline (ThT alone) subtraction and plotted vs. aggregation time. Each compound was evaluated using at least three independent experiments.
Figure 2 Assessment of the inhibition of Aβ monomer aggregation. Monomer aggregation assays were conducted in the absence (solid line, control) and presence (dotted line, experimental) of the ranitidine analogs, and aggregate formation was monitored as an increase in the ThT fluorescence. (A) Inhibition that decreases the quantity of aggregates formed at equilibrium is reported as the plateau reduction, the percentage decrease of the plateau ThT fluorescence in the presence of inhibitor, P2, compared to the plateau for the control, P1. (B) Inhibition that extends the time to aggregate formation is reported as the lag time extension. It is evidenced as an increase in the experimental lag time, T2, relative to the lag time for the control, T1, and evaluated as a fold increase relative to the control, T2/T1.

electric eel AChE = molecular target: T2, electric eel AChE (Electrophorus electricus, UniProt O42275); assay: AChE inhibition assay (modified Ellman method); assay type: biochemical; conditions: 0.1 M sodium phosphate pH 8.0, 37 °C, 200 µM acetylthiocholine
T2 construct: purchased Sigma (Sigma-Aldrich, St. Louis, MO, USA)
Method: Aβ40 was purchased from AnaSpec (AnaSpec, Fremont, CA, USA) and stored in lyophilized form at −20 °C. Thioflavin T (ThT) and electric eel AChE were obtained from Sigma (Sigma-Aldrich, St. Louis, MO, USA). Bovine serum albumin (BSA) and dimethyl sulfoxide (DMSO) were purchased from EMD Biosciences (EMD Biosciences, San Diego, CA, USA). Tris-HCl (pH 8.0) was prepared using Tris base, purchased from Promega (Promega, Madison, WI, USA) and Tris hydrochloride, purchased from EMD (EMD, Burlington, MA, USA).
The AChE inhibition assay was modified based on the method of Ellman et al. in a 24-well plate format at 37 °C. Assays were performed in 0.1 M sodium phosphate (pH 8.0), containing 200 µM acetylthiocholine, 100 µM dithiobisnitrobenzoic acid, and 0.005 units of AChE in a final volume of 3000 µL. The reaction was initiated by the addition of acetylthiocholine, and the formation of a product was monitored by measuring absorbance at 412 nm. The IC50 values were determined by nonlinear regression analysis of the concentration–response curves generated. Each compound was evaluated using at least three independent experiments.

AChE = tested on: AChE; set-up: method as in PMID 27769620; conditions: previous study; cited from earlier work

T1 sequence (P05067 672-711 limits assumed): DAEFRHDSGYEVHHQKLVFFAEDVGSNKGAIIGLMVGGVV
T2 sequence (O42275 24-633): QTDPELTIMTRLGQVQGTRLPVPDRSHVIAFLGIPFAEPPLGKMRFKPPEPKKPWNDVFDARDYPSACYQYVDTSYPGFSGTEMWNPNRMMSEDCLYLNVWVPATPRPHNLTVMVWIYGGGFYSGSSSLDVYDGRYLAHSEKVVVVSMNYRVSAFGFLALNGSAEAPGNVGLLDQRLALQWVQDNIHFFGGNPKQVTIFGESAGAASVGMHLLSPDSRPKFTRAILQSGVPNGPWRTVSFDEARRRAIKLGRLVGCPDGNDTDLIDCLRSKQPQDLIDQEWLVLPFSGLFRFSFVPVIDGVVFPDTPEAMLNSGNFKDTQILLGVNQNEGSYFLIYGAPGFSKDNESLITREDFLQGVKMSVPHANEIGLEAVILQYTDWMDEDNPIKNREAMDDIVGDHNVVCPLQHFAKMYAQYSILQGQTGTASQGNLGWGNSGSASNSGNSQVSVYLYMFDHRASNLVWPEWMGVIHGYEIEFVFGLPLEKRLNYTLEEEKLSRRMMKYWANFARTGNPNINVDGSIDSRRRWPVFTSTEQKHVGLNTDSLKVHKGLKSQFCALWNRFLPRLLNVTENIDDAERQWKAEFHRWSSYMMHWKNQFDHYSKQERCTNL

| Compound | Plateau Reduction (% Inhibition) (Aβ40) | Lag Time Extension (Fold Increase) (Aβ40) | inhibition at 100 µM (Aβ40) | IC50 (electric eel AChE) | IC50 (AChE) |
| --- | --- | --- | --- | --- | --- |
| CC1CC(=O)N(CCSCc2ccc(CN(C)C)o2)C1=O (centres unmarked) [Compound 1] | N.E. | 2.8 ± 0.6 fold | – | – | – |
| O=C1c2cccc3cc([N+](=O)[O-])cc(c23)C(=O)N1CCc1ccco1 [Compound 11, 2-(2-(furan-2-yl)ethyl)-5-nitro-1H-benzo[de]isoquinoline-1,3(2H)-dione] | – | 1.76 ± 0.61 fold | 60.3% | – | – |
| 2-(2-(Methylthio)ethyl)-5-nitro-1H-benzo[de]isoquinoline-1,3(2H)-dione [Compound 7] | abrogated and N.E. | N.E. | – | – | – |
| CN(C)Cc1nc(CSCCN2C(=O)c3cccc4cccc(c34)C2=O)cs1 [Compound 9, 2-(2-((2-((Dimethylamino)methyl)thiazol-4-yl)methylthio)ethyl)-1H-benzo[de]iso quinoline-1,3(2H)-dione] | 54.2% ± 5.1% | N.E. | 61.4% | 2.02 µM | – |
| C[N+](C)([O-])Cc1ccc(CS(=O)(=O)CCN2C(=O)c3cccc4cc([N+](=O)[O-])cc(c34)C2=O)o1 [Compound 15, N,N-Dimethyl-1-(5-(((2-(5-nitro-1,3-dioxo-1H-benzo[de]isoquinolin-2(3H)-yl)ethyl)sulfonyl)methyl)furan-2-yl)methanamine oxide] | – | N.E. | 20.4% | – | – |
| CN(C)Cc1ccc(CCN2C(=O)c3cccc4cc([N+](=O)[O-])cc(c34)C2=O)o1 [Compound 12, 2-(2-(5-((Dimethylamino)methyl)furan-2-yl)ethyl)-5-nitro-1H-benzo[de]isoquino line-1,3(2H)-dione] | – | 2.25 ± 0.25 fold | 65.6% | 0.36 µM | – |
| CN(C)Cc1nc(CSCCN2C(=O)c3cccc4cc([N+](=O)[O-])cc(c34)C2=O)cs1 [Compound 10, 2-(2-(((2-((Dimethylamino)methyl)thiazol-4-yl)methyl)thio)ethyl)-5-nitro-1H-benzo[de]isoquinoline-1,3(2H)-dione] | 61.4% ± 19.7% | N.E. | 54.2% | 0.52 µM | – |
| CN(C)Cc1ccc(CSCCN2C(=O)c3cccc4cc([N+](=O)[O-])cc(c34)C2=O)o1 [Compound 6] | – | N.E. | 71.8% | – | 150 nM |
| CN(C)Cc1ccc(C[S+]([O-])CCN2C(=O)c3cccc4cc([N+](=O)[O-])cc(c34)C2=O)o1 (centres unmarked) [Compound 13, 2-(2-(((5-((Dimethylamino)methyl)furan-2-yl)methyl)sulfinyl)ethyl)-5-nitro-1H-benzo[de]isoquinoline-1,3(2H)-dione] | – | N.E. | 26.8% | – | – |
| CN(C)Cc1ccc(CSCCN2C(=O)c3cccc4cccc(c34)C2=O)o1 [Compound 3] | – | lost and N.E. | 60.9% | – | – |
| CN(C)Cc1ccc(CSCCN2C(=O)c3cccc4c(Cl)ccc(c34)C2=O)o1 [Compound 8, 6-Chloro-2-(2-(((5-((dimethylamino)methyl)furan-2-yl)methyl)thio)ethyl)-1H-benzo [de]isoquinoline-1,3(2H)-dione] | – | N.E. | 65.8% | 1.23 µM | – |
| CN(C)Cc1ccc(C[S+]([O-])CCN2C(=O)c3cccc4cccc(c34)C2=O)o1 (centres unmarked) [Compound 14, 2-(2-(((5-((Dimethylamino)methyl)furan-2-yl)methyl)sulfinyl)ethyl)-1H-benzo[de] isoquinoline-1,3(2H)-dione] | – | N.E. | 20.1% | – | – |
| CN(C)Cc1ccc(CSCCN2C(=O)c3ccc([N+](=O)[O-])cc3C2=O)o1 [Compound 5] | – | 2.0 ± 0.6 fold | 39.1% | – | – |
| CN(C)Cc1ccc(CSCCN2C(=O)c3ccccc3C2=O)o1 [Compound 2] | N.E. | lost and N.E. | – | – | – |
